IC50 data for 27 molecules are collected here from ChEMBL document CHEMBL1151793, “Synthesis, biological active molecular design, and molecular docking study of novel deazaflavin-cholestane hybrid compounds” (Bioorg Med Chem, 2008).

The test system of one assay is KB. Briefly: Antitumor activity against human KB cells by MTT assay. The assay is classed as functional, cell-based. A general note: Formazan colour is commonly taken as a measure of viable cells.
The subject of the next assay is CCRF-HSB-2. Briefly: Antitumor activity against human CCRF-HSB2 cells by MTT assay. Type of assay: functional, cell-based.

The structures appear in SMILES notation. Converted amounts (≈) assume the structure as drawn.

In the case of `CCCCCCCC[C@H]1CC[C@H]2[C@@H]3CCC4=Cc5c(cc6c(=O)[nH]c(=O)nc-6n5-c5ccc(F)cc5)C[C@]4(C)[C@H]3CC[C@]12C`, the figures for the IC50 with KB and in the assay with CCRF-HSB-2 were 2.1 µg/mL (≈ 3.51 µM) and 2.7 µg/mL (≈ 4.52 µM), respectively.
Consider `CCCCCCCC[C@H]1CC[C@H]2[C@@H]3CCC4=Cc5c(cc6c(=O)[nH]c(=O)nc-6n5-c5ccc(C)c(C)c5)C[C@]4(C)[C@H]3CC[C@]12C`, for which the 50% inhibitory concentration (IC50) (usually the concentration at which inhibition is half-maximal) in the assay with KB stood at 7.8 µg/mL (≈ 12.8 µM); in the assay on CCRF-HSB-2, 4.7 µg/mL (≈ 7.73 µM).
`CCCCCCCC[C@H]1CC[C@H]2[C@@H]3CCC4=Cc5c(cc6c(=O)n(C)c(=O)nc-6n5-c5cccc(C)c5)C[C@]4(C)[C@H]3CC[C@]12C`: the 50% inhibitory concentration (IC50) in the assay with KB is 7.4 µg/mL (≈ 12.2 µM); in the assay with CCRF-HSB-2 it was 5.4 µg/mL (≈ 8.88 µM).
On the same counts, the results for `CCCCCCCC[C@H]1CC[C@H]2[C@@H]3CCC4=Cc5c(cc6c(=O)n(C)c(=O)nc-6n5C)C[C@]4(C)[C@H]3CC[C@]12C` are 40.9 µg/mL (≈ 76.9 µM) and 36.8 µg/mL (≈ 69.2 µM).
In the case of `CCCCCCCC[C@H]1CC[C@H]2[C@@H]3CCC4=Cc5c(cc6c(=O)[nH]c(=O)nc-6n5CCCC)C[C@]4(C)[C@H]3CC[C@]12C`, the IC50 in the assay on KB amounted to 5.7 µg/mL (≈ 10.2 µM); in the assay on CCRF-HSB-2, 4.3 µg/mL (≈ 7.68 µM).
For `CCCCCCCC[C@H]1CC[C@H]2[C@@H]3CCC4=Cc5c(cc6c(=O)n(-c7ccccc7)c(=O)nc-6n5C)C[C@]4(C)[C@H]3CC[C@]12C`, the figures for the half-maximal inhibitory concentration (IC50) in the assay with KB and with CCRF-HSB-2 were 7.4 µg/mL (≈ 12.5 µM) and 5.5 µg/mL (≈ 9.26 µM), respectively.
For the molecule `CCCCCCCC[C@H]1CC[C@H]2[C@@H]3CCC4=Cc5c(cc6c(=O)n(-c7ccccc7)c(=O)nc-6n5-c5ccc(C)c(C)c5)C[C@]4(C)[C@H]3CC[C@]12C`, the results for the IC50 with KB and in the assay on CCRF-HSB-2 were 9.1 µg/mL (≈ 13.3 µM) and 7.7 µg/mL (≈ 11.3 µM), respectively.
With `CCCCCCCC[C@H]1CC[C@H]2[C@@H]3CCC4=Cc5c(cc6c(=O)n(C)c(=O)nc-6n5-c5ccc(OC)cc5)C[C@]4(C)[C@H]3CC[C@]12C`, the IC50 with KB was determined as 7.4 µg/mL (≈ 11.9 µM); with CCRF-HSB-2, 4.5 µg/mL (≈ 7.21 µM).
For the molecule `CCCCCCCC[C@H]1CC[C@H]2[C@@H]3CCC4=Cc5c(cc6c(=O)[nH]c(=O)nc-6n5C)C[C@]4(C)[C@H]3CC[C@]12C`, the IC50 in the assay on KB was 8.4 µg/mL (≈ 16.2 µM); in the assay with CCRF-HSB-2 it was 8.8 µg/mL (≈ 17 µM).
Take `CCCCCCCC[C@H]1CC[C@H]2[C@@H]3CCC4=Cc5c(cc6c(=O)n(-c7ccccc7)c(=O)nc-6n5-c5ccccc5)C[C@]4(C)[C@H]3CC[C@]12C`: the IC50 was found to be 1.9 µg/mL (≈ 2.9 µM) in the assay with KB and 2.4 µg/mL (≈ 3.66 µM) with CCRF-HSB-2.
Turning to `CCCCCCCC[C@H]1CC[C@H]2[C@@H]3CCC4=Cc5c(cc6c(=O)[nH]c(=O)nc-6n5-c5cccc(C)c5)C[C@]4(C)[C@H]3CC[C@]12C`, the IC50 with KB is 4.4 µg/mL (≈ 7.41 µM); in the assay with CCRF-HSB-2, 2.7 µg/mL (≈ 4.55 µM).
On to `CCCCCCCC[C@H]1CC[C@H]2[C@@H]3CCC4=Cc5c(cc6c(=O)n(C)c(=O)nc-6n5-c5ccc(C)c(C)c5)C[C@]4(C)[C@H]3CC[C@]12C`, for which the values for the IC50 with KB and with CCRF-HSB-2 were 8.3 µg/mL (≈ 13.3 µM) and 5.6 µg/mL (≈ 9 µM), respectively.
On to `CCCCCCCC[C@H]1CC[C@H]2[C@@H]3CCC4=Cc5c(cc6c(=O)n(-c7ccccc7)c(=O)nc-6n5-c5cccc(C)c5)C[C@]4(C)[C@H]3CC[C@]12C`, for which the IC50 in the assay with KB stood at 8 µg/mL (≈ 11.9 µM); with CCRF-HSB-2, 5.4 µg/mL (≈ 8.06 µM).
As to `CCCCCCCC[C@H]1CC[C@H]2[C@@H]3CCC4=Cc5c(cc6c(=O)n(C)c(=O)nc-6n5-c5ccc(Br)cc5)C[C@]4(C)[C@H]3CC[C@]12C`, the IC50 came to 14.2 µg/mL (≈ 21.1 µM) with KB and 14 µg/mL (≈ 20.8 µM) with CCRF-HSB-2.
For the molecule `CCCCCCCC[C@H]1CC[C@H]2[C@@H]3CCC4=Cc5c(cc6c(=O)n(C)c(=O)nc-6n5CCCC)C[C@]4(C)[C@H]3CC[C@]12C`, the IC50 amounted to 7.5 µg/mL (≈ 13.1 µM) in the assay with KB and 10 µg/mL (≈ 17.4 µM) with CCRF-HSB-2.
In the case of `CCCCCCCC[C@H]1CC[C@H]2[C@@H]3CCC4=Cc5c(cc6c(=O)[nH]c(=O)nc-6n5-c5ccc(Cl)cc5)C[C@]4(C)[C@H]3CC[C@]12C`, the IC50 with KB is 1.8 µg/mL (≈ 2.93 µM); with CCRF-HSB-2 it was 2.7 µg/mL (≈ 4.4 µM).
As for `CCCCCCCC[C@H]1CC[C@H]2[C@@H]3CCC4=Cc5c(cc6c(=O)n(-c7ccccc7)c(=O)nc-6n5-c5ccc(OC)cc5)C[C@]4(C)[C@H]3CC[C@]12C`, the IC50 turned out to be 8.7 µg/mL (≈ 12.7 µM) in the assay with KB and 7.5 µg/mL (≈ 10.9 µM) in the assay on CCRF-HSB-2.
`CCCCCCCC[C@H]1CC[C@H]2[C@@H]3CCC4=Cc5c(cc6c(=O)n(C)c(=O)nc-6n5CC)C[C@]4(C)[C@H]3CC[C@]12C`: the half-maximal inhibitory concentration (IC50) in the assay with KB and in the assay on CCRF-HSB-2 was more than 100 µg/mL in each case.
Regarding `CCCCCCCC[C@H]1CC[C@H]2[C@@H]3CCC4=Cc5c(cc6c(=O)n(-c7ccccc7)c(=O)nc-6n5-c5ccc(Cl)cc5)C[C@]4(C)[C@H]3CC[C@]12C`, the half-maximal inhibitory concentration (IC50) in the assay on KB was 9.3 µg/mL (≈ 13.5 µM); with CCRF-HSB-2, 9 µg/mL (≈ 13 µM).
As to `CCCCCCCC[C@H]1CC[C@H]2[C@@H]3CCC4=Cc5c(cc6c(=O)n(C)c(=O)nc-6n5-c5ccc(F)cc5)C[C@]4(C)[C@H]3CC[C@]12C`, the half-maximal inhibitory concentration (IC50) came to 8.4 µg/mL (≈ 13.7 µM) in the assay on KB and 6.9 µg/mL (≈ 11.3 µM) in the assay on CCRF-HSB-2.
On to `CCCCCCCC[C@H]1CC[C@H]2[C@@H]3CCC4=Cc5c(cc6c(=O)n(-c7ccccc7)c(=O)nc-6n5-c5ccc(F)cc5)C[C@]4(C)[C@H]3CC[C@]12C`, for which the IC50 worked out at 8.4 µg/mL (≈ 12.5 µM) with KB and 5.5 µg/mL (≈ 8.16 µM) with CCRF-HSB-2.
On to `CCCCCCCC[C@H]1CC[C@H]2[C@@H]3CCC4=Cc5c(cc6c(=O)[nH]c(=O)nc-6n5-c5ccc(OC)cc5)C[C@]4(C)[C@H]3CC[C@]12C`, for which the values for the IC50 with KB and in the assay with CCRF-HSB-2 were 1.7 µg/mL (≈ 2.79 µM) and 2.1 µg/mL (≈ 3.44 µM), respectively.
Taken in the same sequence, the figures for `CCCCCCCC[C@H]1CC[C@H]2[C@@H]3CCC4=Cc5c(cc6c(=O)[nH]c(=O)nc-6n5CC)C[C@]4(C)[C@H]3CC[C@]12C` were 40.3 µg/mL (≈ 75.8 µM) and 37.9 µg/mL (≈ 71.3 µM).
For the molecule `CCCCCCCC[C@H]1CC[C@H]2[C@@H]3CCC4=Cc5c(cc6c(=O)[nH]c(=O)nc-6n5-c5ccccc5)C[C@]4(C)[C@H]3CC[C@]12C`, the half-maximal inhibitory concentration (IC50) came to 7.9 µg/mL (≈ 13.6 µM) with KB and 5.4 µg/mL (≈ 9.31 µM) in the assay with CCRF-HSB-2.
Turning to `CCCCCCCC[C@H]1CC[C@H]2[C@@H]3CCC4=Cc5c(cc6c(=O)n(C)c(=O)nc-6n5-c5ccccc5)C[C@]4(C)[C@H]3CC[C@]12C`, the IC50 turned out to be 7.6 µg/mL (≈ 12.8 µM) in the assay on KB and 6.2 µg/mL (≈ 10.4 µM) with CCRF-HSB-2.
With `CCCCCCCC[C@H]1CC[C@H]2[C@@H]3CCC4=Cc5c(cc6c(=O)n(C)c(=O)nc-6n5-c5ccc(Cl)cc5)C[C@]4(C)[C@H]3CC[C@]12C`, the 50% inhibitory concentration (IC50) in the assay with KB was 9.2 µg/mL (≈ 14.6 µM); with CCRF-HSB-2, 7.6 µg/mL (≈ 12.1 µM).
`Nc1ccn([C@@H]2O[C@H](CO)[C@@H](O)[C@@H]2O)c(=O)n1` [CYTARABINE] showed a concentration for half-maximal inhibition (IC50) with KB of 0.73 µg/mL (≈ 3 µM).
